Laboratory results published in ChEMBL document CHEMBL3407382, “Syntheses of chondroitin sulfate tetrasaccharide structures containing 4,6-disulfate patterns and analysis of their interaction with glycosaminoglycan-binding protein” (Bioorg Med Chem Lett, 2015).

Target: Fibroblast growth factor 2 (Homo sapiens, UniProt P09038)
Assay: Binding affinity to FGF2 (unknown origin) assessed as change in luminance intensity at 25 degC by SPR imaging sensor method; call rule not given here

Fibroblast growth factor 2, sequence (P09038 143-288 limits assumed): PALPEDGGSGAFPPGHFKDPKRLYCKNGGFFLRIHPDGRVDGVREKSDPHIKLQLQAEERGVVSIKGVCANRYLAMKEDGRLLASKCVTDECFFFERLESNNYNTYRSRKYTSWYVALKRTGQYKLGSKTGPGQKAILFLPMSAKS

| Structure (SMILES) | Kd (read-out: Kd) | Kd |
| --- | --- | --- |
| CC(=O)N[C@H]1[C@H](O[C@H]2[C@H](O)[C@@H](O)[C@H](O[C@@H]3[C@@H](NC(C)=O)[C@H](OC[C@@H](O)[C@@H](O)[C@H](O)[C@@H](O)CNc4cccc(NC(=O)CCCCC5CCSS5)c4)O[C@H](COS(=O)(=O)O)[C@@H]3OS(=O)(=O)O)O[C@@H]2C(=O)O)O[C@H](COS(=O)(=O)O)[C@H](OS(=O)(=O)O)[C@@H]1O[C@@H]1O[C@H](C(=O)O)[C@@H](O)[C@H](O)[C@H]1O (stereo partly drawn) | 5.2 nM |  |
| CC(=O)N[C@H]1[C@H](OC[C@@H](O)[C@@H](O)[C@H](O)[C@@H](O)CNc2cccc(NC(=O)CCCCC3CCSS3)c2)O[C@H](COS(=O)(=O)O)[C@H](O)[C@@H]1O[C@@H]1O[C@H](C(=O)O)[C@@H](O[C@@H]2O[C@H](COS(=O)(=O)O)[C@H](O)[C@H](O[C@@H]3O[C@H](C(=O)O)[C@@H](O)[C@H](O)[C@H]3OS(=O)(=O)O)[C@H]2NC(C)=O)[C@H](O)[C@H]1OS(=O)(=O)O (stereo partly drawn) | 48 nM |  |
| CC(=O)N[C@H]1[C@H](O[C@H]2[C@H](O)[C@@H](OS(=O)(=O)O)[C@H](O[C@H]3[C@@H](O)[C@@H](COS(=O)(=O)O)O[C@@H](OC[C@@H](O)[C@@H](O)[C@H](O)[C@@H](O)CNc4cccc(NC(=O)CCCCC5CCSS5)c4)[C@@H]3NC(C)=O)O[C@@H]2C(=O)O)O[C@H](COS(=O)(=O)O)[C@H](OS(=O)(=O)O)[C@@H]1O[C@@H]1O[C@H](C(=O)O)[C@@H](O)[C@H](O)[C@H]1O (stereo partly drawn) | 4.7 nM |  |
| CC(=O)N[C@H]1[C@H](OCC(O)C(O)C(O)C(O)CNc2cccc(NC(=O)CCCCC3CCSS3)c2)O[C@H](COS(=O)(=O)O)[C@H](OS(=O)(=O)O)[C@@H]1O[C@@H]1O[C@H](C(=O)O)[C@@H](O[C@@H]2O[C@H](COS(=O)(=O)O)[C@H](O)[C@H](O[C@@H]3O[C@H](C(=O)O)[C@@H](O)[C@H](O)[C@H]3OS(=O)(=O)O)[C@H]2NC(C)=O)[C@H](O)[C@H]1OS(=O)(=O)O (stereo partly drawn) | 16 nM |  |

Results, then the compound that gave them:

| Kd (read-out: Kd) | Kd | Structure (SMILES) |
| --- | --- | --- |
| 5.6 nM |  | CC(=O)N[C@H]1[C@H](O[C@H]2[C@H](O)[C@@H](O)[C@H](O[C@@H]3[C@@H](NC(C)=O)[C@H](OC[C@@H](O)[C@@H](O)[C@H](O)[C@@H](O)CNc4cccc(NC(=O)CCCCC5CCSS5)c4)O[C@H](CO)[C@@H]3OS(=O)(=O)O)O[C@@H]2C(=O)O)O[C@H](COS(=O)(=O)O)[C@H](OS(=O)(=O)O)[C@@H]1O[C@@H]1O[C@H](C(=O)O)[C@@H](O)[C@H](O)[C@H]1O (stereo partly drawn) |
| 8.2 nM |  | CC(=O)N[C@H]1[C@H](O[C@H]2[C@H](O)[C@@H](O)[C@H](O[C@H]3[C@@H](O)[C@@H](COS(=O)(=O)O)O[C@@H](OC[C@@H](O)[C@@H](O)[C@H](O)[C@@H](O)CNc4cccc(NC(=O)CCCCC5CCSS5)c4)[C@@H]3NC(C)=O)O[C@@H]2C(=O)O)O[C@H](COS(=O)(=O)O)[C@H](OS(=O)(=O)O)[C@@H]1O[C@@H]1O[C@H](C(=O)O)[C@@H](O)[C@H](O)[C@H]1O (stereo partly drawn) |
|  | Not Active | CC(=O)N[C@H]1[C@H](O[C@H]2[C@H](O)[C@@H](OS(=O)(=O)O)[C@H](O[C@H]3[C@@H](O)[C@@H](COS(=O)(=O)O)O[C@@H](OC[C@@H](O)[C@@H](O)[C@H](O)[C@@H](O)CNc4cccc(NC(=O)CCCCC5CCSS5)c4)[C@@H]3NC(C)=O)O[C@@H]2C(=O)O)O[C@H](COS(=O)(=O)O)[C@H](O)[C@@H]1O[C@@H]1O[C@H](C(=O)O)[C@@H](O)[C@H](O)[C@H]1O (stereo partly drawn) |
|  | Not Active | CC(=O)N[C@H]1[C@H](OC[C@@H](O)[C@@H](O)[C@H](O)[C@@H](O)CNc2cccc(NC(=O)CCCCC3CCSS3)c2)O[C@H](COS(=O)(=O)[O-])[C@H](OS(=O)(=O)[O-])[C@@H]1O[C@@H]1O[C@H](C(=O)O)[C@@H](O[C@@H]2O[C@H](COS(=O)(=O)[O-])[C@H](O)[C@H](O[C@@H]3O[C@H](C(=O)O)[C@@H](O)[C@H](O)[C@H]3O)[C@H]2NC(C)=O)[C@H](O)[C@H]1O.[Na+].[Na+].[Na+] (stereo partly drawn) |
